This is an account of results in patent US6110963A, “Aryl-oxo-acetic acids useful in the treatment of insulin resistance and hyperglycemia” (American Home Products Corporation, priority 1999, dated 2000).

The target of test [1] is T1, Human recombinant PTP1B (hPTP1B) (Homo sapiens, UniProt P18031).
T1 construct: made in house
T1 sequence (P18031 1-435): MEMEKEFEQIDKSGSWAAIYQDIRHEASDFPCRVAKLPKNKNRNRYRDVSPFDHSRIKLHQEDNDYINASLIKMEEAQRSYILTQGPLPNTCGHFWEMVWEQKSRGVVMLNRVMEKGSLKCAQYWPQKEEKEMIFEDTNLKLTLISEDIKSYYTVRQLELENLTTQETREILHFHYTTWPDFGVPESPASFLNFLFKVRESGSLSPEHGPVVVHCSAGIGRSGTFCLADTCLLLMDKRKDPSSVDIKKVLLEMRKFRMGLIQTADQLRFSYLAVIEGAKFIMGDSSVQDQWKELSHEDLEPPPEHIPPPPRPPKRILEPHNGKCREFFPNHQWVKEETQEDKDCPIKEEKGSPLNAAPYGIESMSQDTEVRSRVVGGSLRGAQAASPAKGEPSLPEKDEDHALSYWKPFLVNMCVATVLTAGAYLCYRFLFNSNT
Type of test: biochemical. The conditions noted are these: for IC50: recombinant PTP1B, malachite green phosphate detection; for inhibition at 2.5 µM: read-out: change of PTP1B activity (percent of phosphatase control) at single concentration.

The test system of test [2] is rat hepatic microsomal PTPases. The conditions noted are these: PTPase activity, compound at 50 μM, rat liver microsomes.
The next test relates to diabetic (ob/ob) mice. Description: Blood glucose lowering activity in diabetic (ob/ob) mice. Type of test: in vivo, mouse. The conditions noted are these: 100 mg/Kg; for % Change Glucose from Vehicle: plasma glucose. An excerpt:
The procedures used and results obtained are briefly described below.
The non-insulin dependent diabetic (NIDDM) syndrome can be typically characterizes by obesity, hyperglycemia, abnormal insulin secretion, hyperinsulinemia and insulin resistance.
In each test procedure, mice [Male or female ob/ob (C57 B1/6J) and their lean litermates (ob/+ or +/+, Jackson Laboratories) ages 2 to 5 months (10 to 65 g)] of a similar age were randomized according to body weight into 4 groups of 10 mice. The mice were housed 5 per cage and are maintained on normal rodent chow with water ad libitum. Mice received test compound daily by gavage (suspended in 0.5 ml of 0.5% methyl cellulose); dissolved in the drinking water; or admixed in the diet. The dose of compounds given ranges from 2.5 to 200 mg/kg body weight/day. The dose is calculated based on the fed weekly body weight and is expressed as active moiety. […] Control mice received vehicle only.
On the morning of Day 4, 7 or 14 two drops of blood (approximetly 50 ul) were collected into sodium fluoride containing tubes either from the tail vein or after decapitation. For those studies in which the compound was administered daily by gavage the blood samples were collected two hours after compound administration. The plasma was isolated by centrifugation and the concentration of glucose is measured enzymatically on an Abbott V. P. Analyzer.
For each mouse, the percentage change in plasma glucose on Day 4, 7 or 14 is calculated relative to the mean plasma glucose of the vehicle treated mice. Analysis of variance followed by Dunett's Comparison Test (one-tailed) are used to estimate the significant difference between the plasma glucose values from the control group and the individual compound treated groups (CMS SAS Release 5.18).

Read-outs that look alike come from different tables or passages of the source.

As to `CCCCc1oc2ccccc2c1C(O)c1ccc2cc(O)ccc2c1` (stereo not shown) [Example 1], the IC50 (usually the concentration at which inhibition is half-maximal) in test [1] is 1160 nM. The “% Change from Control” value in test [2] is listed as -31%.

`CCCCc1oc2ccccc2c1Cc1ccc2cc(O)ccc2c1` [Example 2]: the IC50 in test [1] is 1350 nM. In addition, the “% Change from Control” value in test [2] is reported as -37%.

On to `CCCCc1oc2ccccc2c1Cc1ccc2c(Br)c(O)ccc2c1` [Example 3, 1-Bromo-6-(2-butyl-benzofuran-3-ylmethyl)-naphthalen-2-ol], for which the IC50 in test [1] was found to be 330 nM. In test [2], the “% Change from Control” value was -37%.

For the compound `CCCCc1oc2ccccc2c1Cc1ccc2c(Br)c(OCC(=O)O)ccc2c1` [Example 4, [1-Bromo-6-(2-butyl-benzofuran-3-ylmethyl)-naphthalen-2-yloxy]-acetic acid], in test [1], the concentration for half-maximal inhibition (IC50) turned out to be 1440 nM. For the same compound, the “% Change from Control” value in test [2] is recorded as -65%.

Take `CCCCc1oc2ccccc2c1Cc1ccc2c(Br)c(OC(Cc3ccccc3)C(=O)O)ccc2c1` (stereo not shown) [Example 5, 2-[1-Bromo-6-(2-butyl-benzofuran-3-ylmethyl)-naphthalen-2-yloxy]-3-phenylpropionic acid]: the IC50 in test [1] turned out to be 370 nM. In addition, the “% Change Glucose from Vehicle” value in the test on diabetic (ob/ob) mice is reported as -25.6%. Moreover, in test [2], the “% Change from Control” value was -59%.

Consider `CCCCc1oc2ccccc2c1Cc1ccc2c(Br)c(OCc3nnn[nH]3)ccc2c1` [Example 6, 5-[1-Bromo-6-(2-butyl-benzofuran-3-ylmethyl)-naphthalen-2-yloxymethyl]-1H-tetrazole], for which the IC50 in test [1] was 700 nM. Moreover, the “% Change from Control” value in test [2] is listed as -62%.

In the case of `CCCCc1oc2ccccc2c1Cc1ccc2c(I)c(O)ccc2c1` [Example 7, 6-(2-Butyl-benzofuran-3-ylmethyl)-1-iodo-naphthalen-2-ol], the concentration for half-maximal inhibition (IC50) in test [1] stood at 310 nM. In addition, the “% Change from Control” value in test [2] is listed as -24%.

For the compound `CCCCc1oc2ccccc2c1Cc1ccc2c(I)c(OC(Cc3ccccc3)C(=O)O)ccc2c1` (stereo not shown) [Example 8], the IC50 in test [1] was determined as 310 nM. In the test on diabetic (ob/ob) mice, the “% Change Insulin from Vehicle” value was -33% and the “% Change Glucose from Vehicle” value is -11%. The “% Change from Control” value in test [2] is listed as -58%.

As to `CCCCc1oc2ccccc2c1C(O)c1ccc2c(Br)c(O)ccc2c1` (stereo not shown) [Example 9, 1-Bromo-6-[(2-butyl-benzofuran-3-yl)-hydroxy-methyl]-naphthalen-2-ol], the IC50 in test [1] stood at 480 nM. Further, the “% Change Insulin from Vehicle” value in the test with diabetic (ob/ob) mice was -38%.

Regarding `CCCCc1oc2ccccc2c1C(=O)c1ccc2c(Br)c(OCC(=O)O)ccc2c1` [Example 10, [1-Bromo-6-(2-butyl-benzofuran-3-carbonyl)-naphthalen-2-yloxy]-acetic acid], in test [1] (compound at 2.5 uM), the inhibition at 2.5 µM amounted to 46%. The “% Change from Control” value in test [2] is -69%.

Take `CCCCc1oc2ccccc2c1C(=O)c1ccc2c(Br)c(OC(Cc3ccccc3)C(=O)O)ccc2c1` (stereo not shown) [Example 11, 2-[1-Bromo-6-(2-butyl-benzofuran-3-carbonyl)-naphthalen-2-yloxy]-3-phenylpropionic acid]: the IC50 in test [1] is 1230 nM. Also, the “% Change from Control” value in test [2] was -77%.

For the compound `CCCCc1oc2ccccc2c1C(=O)c1ccc2c(Br)c(OCc3nnn[nH]3)ccc2c1` [Example 12, [5-bromo-6-(1H-tetrazol-5-ylmethoxy)-naphthalen-2-yl]-(2-butyl-benzofuran-3-yl)methanone], the half-inhibitory concentration (IC50) in test [1] amounted to 1130 nM. Moreover, in the test on diabetic (ob/ob) mice, the “% Change Insulin from Vehicle” value came to 12% and the “% Change Glucose from Vehicle” value was -24.8%. Moreover, in test [2], the “% Change from Control” value is recorded as -70%.

As to `Oc1ccc2cc(Cc3c(Cc4ccccc4)sc4ccccc34)ccc2c1Br` [Example 13, 6-(2-Benzyl-benzo[b]thiophen-3-ylmethyl)-1-bromo-naphthalen-2-ol], in test [1], the IC50 is 1040 nM. In addition, in test [2], the “% Change from Control” value is -37%.

Take `CCCCc1oc2ccccc2c1C(O)c1ccc(-c2ccc(O)cc2)cc1` (stereo not shown) [Example 14, 4'-[(2-Butyl-benzofuran-3-yl)-hydroxy-methyl]-biphenyl-4-ol]: in test [1], the IC50 worked out at 230 nM.

As for `CCCCc1oc2ccccc2c1C(=O)c1ccc(-c2ccc(O)cc2)cc1` [Example 15, (2-Butyl-benzofuran-3-yl)-(4'-hydroxy-biphenyl-4-yl)-methanone], the inhibition at 2.5 µM in test [1] worked out at 53%. For the same compound, the “% Change from Control” value in test [2] is -20%.

Take `CCCCc1oc2ccccc2c1Cc1ccc(-c2ccc(O)cc2)cc1` [Example 16]: the IC50 in test [1] was 1190 nM. The “% Change from Control” value in test [2] is given as -28%.

In the case of `CCCCc1oc2ccccc2c1Cc1ccc(-c2ccc(OCC(=O)O)cc2)cc1` [Example 17], in test [1], the IC50 came out at 1150 nM. Moreover, the “% Change from Control” value in test [2] is on record as -76%.

Consider `CCCCc1oc2ccccc2c1Cc1ccc(-c2ccc(OCc3nnn[nH]3)cc2)cc1` [Example 18], for which the IC50 in test [1] stood at 510 nM.

As for `CCCCc1oc2ccccc2c1C(O)c1ccc(-c2ccc(OCC(=O)O)cc2)cc1` (stereo not shown) [Example 19, {4'-[(2-Butyl-benzofuran-3-yl)-hydroxy-methyl]-biphenyl-4-yloxy}-acetic acid], the concentration for half-maximal inhibition (IC50) in test [1] stood at 540 nM. Also, in test [2], the “% Change from Control” value is given as -24%.

`CCCCc1oc2ccccc2c1C(O)c1ccc(-c2cc(Br)c(O)c(Br)c2)cc1` (stereo not shown) [Example 20, 3,5-Dibromo-4'-[(2-butyl-benzofuran-3-yl)-hydroxy-methyl]-biphenyl-4-ol]: the half-inhibitory concentration (IC50) in test [1] is 1400 nM. Moreover, the “% Change from Control” value in test [2] is -22%.

On to `Oc1ccc(-c2ccc(C(O)c3c(Cc4ccccc4)sc4ccccc34)cc2)cc1` (stereo not shown) [Example 21, 4'-[(2-Benzyl-benzorblthiophen-3-yl)-hydroxy-methyl]-biphenyl-4-ol], for which the inhibition at 2.5 µM in test [1] (compound at 2.5 uM) was 36%.

On to `CCCCc1oc2ccccc2c1C(O)c1ncc(-c2ccc(OC)cc2)o1` (stereo not shown) [Example 22, (2-Butyl-benzofuran-3-yl)-[5-(4-methoxy-phenyl)-oxazole-2-yl]-methanol], for which the “% Change from Control” value in test [2] is given as -38%.

On to `CCCCc1oc2ccccc2c1C(=O)c1ncc(-c2ccc(OC)cc2)o1` [Example 23, (2-Butyl-benzofuran-3-yl)-[5-(4-methoxy-phenyl)-oxazole-2-yl]-methanone], for which the inhibition at 2.5 µM in test [1] (compound at 2.5 uM) was determined as 55%.

Take `CCCCc1oc2ccccc2c1Cc1ncc(-c2ccc(OC)cc2)o1` [Example 24, 2-(2-Butyl-benzofuran-3-ymethyl)-5-(4-methoxy-phenyl)-oxazole]: in test [1] (compound at 2.5 uM), the inhibition at 2.5 µM turned out to be 35%.

With `CCCCc1oc2ccccc2c1C(=O)c1nc(Br)c(-c2ccc(OC)cc2)o1` [Example 25, [4-Bromo-5-(4-methoxy-phenyl)-oxazol-2-yl]-(2-butyl-benzofuran-3-yl)-methanone], in test [1], the IC50 amounted to 1360 nM.

Consider `CCCCc1oc2cc(Br)ccc2c1Cc1nc(Br)c(-c2ccc(OC)cc2)o1` [Example 26], for which the IC50 in test [1] was 1240 nM.

As for `CCCCc1oc2ccccc2c1C(Sc1nc2ccccc2s1)c1ccc2cc(O)ccc2c1` (stereo not shown) [Example 27], the half-maximal inhibitory concentration (IC50) in test [1] turned out to be 1000 nM.

Regarding `CCCCc1oc2ccccc2c1C(Sc1nc2ccccc2s1)c1ccc(-c2ccc(O)cc2)cc1` (stereo not shown) [Example 28, 4'-[(2-Butyl-benzofuran-3-yl)-(benzothiazol-2-ylsulfanyl)-methyl]-biphenyl-4-ol], the IC50 in test [1] was determined as 1160 nM.

As for `CCCCCCCC(Sc1nc2ccccc2s1)c1cc2ccccc2s1` (stereo not shown) [Example 29, 2-[1-(Benzorblthiophen-2-yl)-octylsulfanyl]-benzothiazole], the IC50 in test [1] came out at 1860 nM. Further, the “% Change from Control” value in test [2] is reported as -24%.

As to `CCCCc1oc2ccccc2c1C(Sc1nc2ccccc2s1)c1ccc(Br)cc1` (stereo not shown) [Example 30, 2-[(4-Bromo-phenyl)-(2-butyl-benzofuran-3-yl)-methylsulfanyl]-benzothiazole], the 50% inhibitory concentration (IC50) in test [1] came out at 580 nM.

In the case of `CCCCc1oc2ccccc2c1C(Sc1nc2ccccc2s1)c1ccc(Br)c2ccccc12` (stereo not shown) [Example 31, 2-[(4-Bromo-naphthalen-1-yl)-(2-butyl-benzofuran-3-yl)-methylsulfanyl]-benzothiazole], the 50% inhibitory concentration (IC50) in test [1] was 590 nM.

`CCCCc1oc2ccccc2c1C(Sc1nc2ccccc2s1)c1ccccc1` (stereo not shown) [Example 32]: the IC50 in test [1] was found to be 1000 nM.

For the compound `Brc1cc(Cc2ccc3ccccc3c2)cc(Br)c1OCc1nnn[nH]1` [Example 34, 5-[2,6-Dibromo-4-(naphthalen-2-ylmethyl)-phenoxymethyl]-1H-tetrazole], in the test on diabetic (ob/ob) mice, the “% Change Insulin from Vehicle” value was -18% and the “% Change Glucose from Vehicle” value is on record as -27.8%.
